Where “and” joins values, the source holds several entries; their conditions need not be identical. Identical values can stand only once. Toxic doses and inconclusive results are not listed. Rule as the data show it: active = T/C of 150% or more; inactive = T/C below 125%.
System: L1210 leukemia ip in BDF1 mice, survival T/C
Experiment: NCI In Vivo Anticancer Drug Screen. Data for tumor model L1210 Leukemia (intraperitoneal) in B6D2F1 (BDF1) mice
Conditions: endpoint: mean survival time, higher = longer survival
How it was run: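 Read-out is survival time, reported as the treated-group measurement over the vehicle-control measurement.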

[1] = dose: 100.0 mg/kg/injection, schedule: Q04DX003 (ip), vehicle: Klucel (hydroxypropylcellulose) (HPC)
[2] = dose: 200.0 mg/kg/injection, schedule: Q04DX003 (ip), vehicle: Klucel (hydroxypropylcellulose) (HPC)
[3] = dose: 400.0 mg/kg/injection, schedule: Q04DX003 (ip), vehicle: Klucel (hydroxypropylcellulose) (HPC)
[4] = dose: 100.0 mg/kg/injection, schedule: Q01DX001 (ip), vehicle: saline
[5] = dose: 200.0 mg/kg/injection, schedule: Q01DX001 (ip), vehicle: saline
[6] = dose: 400.0 mg/kg/injection, schedule: Q01DX001 (ip), vehicle: saline
[7] = dose: 50.0 mg/kg/injection, schedule: Q01DX009 (ip), vehicle: saline
[8] = dose: 100.0 mg/kg/injection, schedule: Q01DX009 (ip), vehicle: saline
[9] = dose: 200.0 mg/kg/injection, schedule: Q01DX009 (ip), vehicle: saline
[10] = dose: 100.0 mg/kg/injection, schedule: Q01DX001 (ip), vehicle: carboxymethylcellulose (CMC)
[11] = dose: 200.0 mg/kg/injection, schedule: Q01DX001 (ip), vehicle: carboxymethylcellulose (CMC)
[12] = dose: 400.0 mg/kg/injection, schedule: Q01DX001 (ip), vehicle: carboxymethylcellulose (CMC)
[13] = dose: 100.0 mg/kg/injection, schedule: Q01DX009 (ip), vehicle: Klucel (hydroxypropylcellulose) (HPC)
[14] = dose: 200.0 mg/kg/injection, schedule: Q01DX009 (ip), vehicle: Klucel (hydroxypropylcellulose) (HPC)
[15] = dose: 25.0 mg/kg/injection, schedule: Q01DX009 (ip), vehicle: saline
[16] = dose: 100.0 mg/kg/injection, schedule: Q04DX003 (ip), vehicle: saline
[17] = dose: 200.0 mg/kg/injection, schedule: Q04DX003 (ip), vehicle: saline
[18] = dose: 50.0 mg/kg/injection, schedule: Q01DX001 (ip), vehicle: saline

Measured: T/C

FC(F)(F)c1ccc2c(c1)N(CCCCl)c1ccccc1S2
inactive: dose: 50.0 mg/kg/injection, schedule: Q04DX003 (ip), vehicle: Klucel (hydroxypropylcellulose) (HPC) 103 % of control | [1] 118 % of control | [2] 105 % of control | [3] 115 % of control

CC1C(=O)C=C2CCCC(C)(C)C2(C)C1(O)CCc1ccoc1 (stereo not drawn)
inactive: [4] 103 % of control | [5] 97 % of control | [6] 107 % of control

CC(C)COCCCN
inactive: dose: 10.0 mg/kg/injection, schedule: Q01DX009 (ip), vehicle: saline 95 % of control | [7] 95 % of control

NC(=O)C(Br)c1ccccc1 (stereo not drawn)
inactive: [1] 101 % of control | [2] 98 % of control

O=C(CN1C(=O)c2ccccc2C1=O)c1cccc(Br)c1
inactive: [4] 95 % of control | [5] 104 % of control | [6] 103 % of control

CCN(CC)CCCC(C)Nc1ncnc2c1C(c1ccccc1)C(C)(C)O2 (stereo not drawn)
inactive: [8] 106 % of control | [9] 101 % of control | dose: 400.0 mg/kg/injection, schedule: Q01DX009 (ip), vehicle: saline 101 % of control

N#CC(Nc1c(N)nc(-c2ccccc2)nc1N)c1ccc(N(CCCl)CCCl)cc1 (stereo not drawn)
inactive: dose: 50.0 mg/kg/injection, schedule: Q01DX001 (ip), vehicle: carboxymethylcellulose (CMC) 100 % of control | [10] 115 % of control | [11] 100 % of control | [12] 105 % of control

Nc1ccccc1SC1CC(=O)N(c2cccc(Cl)c2)C1=O (stereo not drawn)
inactive: [13] 91 % of control | [1] 94 % of control | [14] 92 % of control | [2] 95 % of control | dose: 400.0 mg/kg/injection, schedule: Q01DX009 (ip), vehicle: Klucel (hydroxypropylcellulose) (HPC) 91 % of control | [3] 94 % of control

COc1ccc(/C=C(/C(=O)O)c2ccc(OC)cc2)cc1
inactive: dose: 100.0 mg/kg/injection, schedule: Q04DX003 (ip), vehicle: other 98 % of control | dose: 200.0 mg/kg/injection, schedule: Q04DX003 (ip), vehicle: other 95 % of control | dose: 400.0 mg/kg/injection, schedule: Q04DX003 (ip), vehicle: other 95 % of control

CC(=O)OC1OC(C2COC(C)(C)O2)C2OC(C)(C)OC12 (stereo not drawn)
inactive: [10] 103 % of control | [11] 103 % of control | [12] 103 % of control

O=[N+]([O-])c1ccc([As+](c2ccccc2)(c2ccccc2)c2ccccc2)cc1
inactive: dose: 10.0 mg/kg/injection, schedule: Q01DX001 (ip), vehicle: saline 88 % of control | dose: 20.0 mg/kg/injection, schedule: Q01DX001 (ip), vehicle: saline 92 % of control

CN1C(c2ccco2)NC(=O)C12CCN(Cc1ccccc1)CC2 (stereo not drawn)
inactive: [10] 101 % of control | [11] 93 % of control

COc1ccc(C=[N+](C)CCc2ccc(OC)c(OC)c2)cc1OC
inactive: [15] 96 % of control | [7] 101 % of control | [8] 93 % of control and 116 % of control | [16] 100 % of control | [9] 98 % of control and 91 % of control | [17] 97 % of control

Cc1ccc(-c2ccccc2)cc1C(=O)O
inactive: dose: 100.0 mg/kg/injection, schedule: Q04DX002 (ip), vehicle: Klucel (hydroxypropylcellulose) (HPC) 94 % of control | dose: 200.0 mg/kg/injection, schedule: Q04DX002 (ip), vehicle: Klucel (hydroxypropylcellulose) (HPC) 90 % of control | dose: 400.0 mg/kg/injection, schedule: Q04DX002 (ip), vehicle: Klucel (hydroxypropylcellulose) (HPC) 101 % of control

Clc1cc(Cl)c(I)c(Cl)c1
inactive: [13] 95 % of control | [1] 93 % of control | [14] 95 % of control | [2] 95 % of control | [3] 92 % of control

c1ccc(N=C2C3CCN(CC3)C2C(c2ccccc2)c2ccccc2)cc1 (stereo not drawn)
inactive: [1] 97 % of control | [2] 94 % of control | [3] 95 % of control

S=C1NCC2CCc3c(ccc4ccccc34)N12 (stereo not drawn)
inactive: dose: 100.0 mg/kg/injection, schedule: Q01DX001 (ip), vehicle: other 97 % of control | dose: 200.0 mg/kg/injection, schedule: Q01DX001 (ip), vehicle: other 90 % of control | dose: 400.0 mg/kg/injection, schedule: Q01DX001 (ip), vehicle: other 95 % of control

CCC1CC(C#N)C(=O)NC1=O (stereo not drawn)
inactive: dose: 6.25 mg/kg/injection, schedule: Q01DX009 (ip), vehicle: saline 93 % of control | dose: 12.5 mg/kg/injection, schedule: Q01DX001 (ip), vehicle: saline 108 % of control | dose: 12.5 mg/kg/injection, schedule: Q01DX009 (ip), vehicle: saline 91 % of control | dose: 12.5 mg/kg/injection, schedule: Q04DX003 (ip), vehicle: saline 100 % of control | dose: 25.0 mg/kg/injection, schedule: Q01DX001 (ip), vehicle: saline 100 % of control | [15] 93 % of control | dose: 25.0 mg/kg/injection, schedule: Q04DX003 (ip), vehicle: saline 92 % of control | [18] 110 % of control

Nc1nc(N2CCCCC2)c2nc(Cl)n(C3OC(CO)C(O)C3O)c2n1 (stereo not drawn)
inactive: [4] 96 % of control | [5] 94 % of control | [6] 97 % of control

CCS(=O)c1ncc2cnccn12 (stereo not drawn)
inactive: dose: 50.0 mg/kg/injection, schedule: Q01DX009 (ip), vehicle: water 105 % of control | dose: 100.0 mg/kg/injection, schedule: Q01DX009 (ip), vehicle: water 107 % of control | dose: 100.0 mg/kg/injection, schedule: Q04DX003 (ip), vehicle: water 102 % of control | dose: 200.0 mg/kg/injection, schedule: Q04DX003 (ip), vehicle: water 100 % of control

CS(=O)(=O)Nc1ccccc1
inactive: dose: 75.0 mg/kg/injection, schedule: Q04DX003 (ip), vehicle: Klucel (hydroxypropylcellulose) (HPC) 98 % of control | dose: 100.0 mg/kg/injection, schedule: Q01DX001 (ip), vehicle: Klucel (hydroxypropylcellulose) (HPC) 96 % of control | dose: 150.0 mg/kg/injection, schedule: Q04DX003 (ip), vehicle: Klucel (hydroxypropylcellulose) (HPC) 93 % of control | dose: 200.0 mg/kg/injection, schedule: Q01DX001 (ip), vehicle: Klucel (hydroxypropylcellulose) (HPC) 101 % of control | dose: 300.0 mg/kg/injection, schedule: Q04DX003 (ip), vehicle: Klucel (hydroxypropylcellulose) (HPC) 93 % of control | dose: 400.0 mg/kg/injection, schedule: Q01DX001 (ip), vehicle: Klucel (hydroxypropylcellulose) (HPC) 96 % of control

CCN(CC)CCCC(C)Nc1ncnc2ncc3c(c12)CCCC3 (stereo not drawn)
inactive: dose: 100.0 mg/kg/injection, schedule: Q04DX002 (ip), vehicle: saline 102 % of control | dose: 200.0 mg/kg/injection, schedule: Q04DX002 (ip), vehicle: saline 98 % of control

CN=C(N)c1cccc(NC(=O)c2ccc(C(=O)Nc3cccc(C(N)=NC)c3)cc2)c1
inactive: dose: 15.0 mg/kg/injection, schedule: Q01DX Z (ip), vehicle: saline 109 % of control | dose: 30.0 mg/kg/injection, schedule: Q01DX Z (ip), vehicle: saline 93 % of control

CCSCC1OC2OC(C)(C)OC2C1O (stereo not drawn)
inactive: [4] 97 % of control | [5] 111 % of control | [6] 97 % of control

CS(=O)(=O)OCCN(CCO)c1cn(C(c2ccccc2)(c2ccccc2)c2ccccc2)c(=O)n(C(c2ccccc2)(c2ccccc2)c2ccccc2)c1=O
inactive: [18] 94 % of control | [4] 105 % of control | [5] 97 % of control | [6] 103 % of control

O=C1CC(Cc2n[nH]c3c2CCC3)CC(=O)N1
inactive: [10] 103 % of control | dose: 100.0 mg/kg/injection, schedule: Q04DX003 (ip), vehicle: carboxymethylcellulose (CMC) 97 % of control | [11] 97 % of control | dose: 200.0 mg/kg/injection, schedule: Q04DX003 (ip), vehicle: carboxymethylcellulose (CMC) 94 % of control | [12] 105 % of control | dose: 400.0 mg/kg/injection, schedule: Q04DX003 (ip), vehicle: carboxymethylcellulose (CMC) 101 % of control

CCC(C#N)C(=O)NC(N)=O (stereo not drawn)
inactive: [16] 97 % of control | [17] 92 % of control | dose: 400.0 mg/kg/injection, schedule: Q04DX003 (ip), vehicle: saline 91 % of control

From PubChem BioAssay AID248 (DTP/NCI, 2004)
